Consider two compounds from patent US20100016731A1, “Hemodynamic Detection of Circulatory Anomalies” (Cardiox Corporation, priority 2008, published 2010).

Where a name gives a salt, the structure may show the parent alone. Bounds are passed on as bounds.

The conditions of data set [1]: 1 day. The text has this:
However, due to the ratiometric form of Eq. 7 in the present invention, the terms D and CCF cancel out. Also, the units of measure for the fluorescence signal level (e.g., millivolts-seconds) cancel out. […] However, the amount of the indicator injected needs to be sufficiently large so that the much smaller indicator/dilution curves associated with one or two right-to-left shunts can be adequately resolved and their corresponding areas can be accurately calculated. In a preferred embodiment of the present invention involving the use of Indocyanine Green (ICG) dye (supplied, for example, by Akorn, Inc., 2500 Millbrook Drive, Buffalo Grove, Ill. 60089) as the indicator, the preferred amount of ICG dye injected is 2.0 ml at an ICG dye concentration of 2.5 milligram/ml which is equivalent to an injected ICG dose of 5.0 milligrams. The chemical name for Indocyanine Green is 1H-benz(e)indolium, 2-[7-[1,3-dihydro-1,1-dimethyl-3-(4-sulfobutyl)-2H-benz[e]indo-2-ylidene]-1,3,5-heptatrienyl]-1,1-dimethyl-3-(4-sulfobutyl)-hydroxide, inner salt, sodium, or 2-[7-[1,1-dimethyl-3-(4-sulfobutyl)benz[e]indolin-2-ylidene]-1,3,5-heptatrienyl]-1,1-dimethyl-3-(4-sulfobutyl)-1H-benz[e]indolium hydroxide, inner salt, sodium salt. A typical right-to-left shunt test procedure might involve a total of 3 to 5 tests which represents a total injected dose of 15 to 25 milligrams. […]

The nature of data set [2]: Excitation and fluorescence wavelengths and signal attenuation versus tissue depth of fluorescing dyes (FIG. 2). The data set is classed as physicochemical. The text has this: These fluorescing dyes are excited by one wavelength of electromagnetic radiation, and emit a detectable signal at a second wavelength. Looking to FIG. 2, the excitation signal for fluorescein dye is represented at curve 30 which is an excitation signal at less than about 500 nanometers (nm). A resultant fluorescence emission from the excitation at 30 is shown at curve 32, at a wavelength of about 525 nm.
Looking to the indocyanine green dye spectrum, an excitation curve is shown at 34, having a peak excitation wavelength at about 785 nanometers. Correspondingly, the fluorescence emission from excitation at curve 34 is represented at curve 36 with a peak emission wavelength of about 830 nanometers. Directed across FIG. 2 is a curve representing the level of constant signal attenuation or absorption of about 37% resulting from passage of signal through tissue. That curve is represented at 38. Note that if a blood vessel is about one millimeter beneath the surface of skin the system would perform at about 37% of the original intensity of the excitation signal and fluorescence signal for the case of indocyanine green dye indicator. In contrast, a 37% decrease in excitation and emission signal level would result for the fluorescein dye indicator at a tissue thickness of only 0.25 mm. Since blood vessel being targeted is at least 1 mm below skin surface, the attenuation and associated signal loss would be much larger. Therefore, indocyanine green dye is preferred.
Turning again to the indocyanine green dye spectrum, note that the excitation signal 34 for ICG intersects curve 38 at a depth allowing for readily reaching blood vessels, for example within the pinna of the ear. Accordingly, indocyanine green is compatible with use as a circulatory tracking agent when detecting through skin, and indocyanine green was the indicator elected for subsequent study.

For data set [3] the following is noted: manufacturers specified guideline; cited from earlier work.

In the case of `CC1(C)C(/C=C/C=C/C=C/C=C2\N(CCCCS(=O)(=O)O)c3ccc4ccccc4c3C2(C)C)=[N+](CCCCS(=O)(=O)[O-])c2ccc3ccccc3c21` [ICG, 1H-benz(e)indolium, 2-[7-[1,3-dihydro-1,1-dimethyl-3-(4-sulfobutyl)-2H-benz[e]indo-2-ylidene]-1,3,5-heptatrienyl]-1,1-dimethyl-3-(4-sulfobutyl)-hydroxide, inner salt, sodium], the “recommended ICG dose for a human subject” value in data set [1] was “about 127 milligrams”. Moreover, the excitation wavelength result in data set [2] (FIG. 2) is on record as “about 785 nanometers”. In addition, the “recommended maximum ICG dose per day” value in data set [3] was ≤ 2 milligrams per kilogram of body weight.
`O=C1OC2(c3ccc(O)cc3Oc3cc(O)ccc32)c2ccccc21` [fluorescein]: in data set [2] (FIG. 2), the excitation wavelength result is listed as “less than 500 nanometers” and the fluorescence emission wavelength result is “about 525 nm”. Besides, the “tissue thickness (depth of blood vessel beneath skin) at constant signal attenuation of about 37%” value in data set [2] (excitation and fluorescence signal, FIG. 2 curve 38) turned out to be 0.25 mm.
